Laboratory results taken from patent US11274314B2, “Herbicide safener combinations for acetyl co-enzyme a carboxylase herbicide resistant plants” (priority 2016, dated 2022).

Experiments:
[1] = system: single copy varieties AF28-A, AF26-B, AF10-D; assay: Safener potentiation of ACCase herbicide resistance in single copy wheat varieties; format: in vivo; details: safener combined with ACCase herbicide; single copy varieties vs multiple copy or multiple genome lines
[2] = system: quizalofop tolerant mutant wheat accessions and non-mutant check; assay: Cross-resistance study within the ACCase herbicide mode of action, plant survival; format: in vivo, Triticum aestivum L.; details: for survival: 28 DAT, clethodim 65, sethoxydim 264, fluazifop 361 g ai ha^−1, clethodim + 10.5 g ai ha^−1 quizalofop
Method: (§1) Dose response. A dose response study was completed with 11, 23, 46, 92, and 184 g quizalofop ha^−1. Seven DAT the tops of plants were cut off above the newest above-ground growing point. Binomial evaluation of plant survival was performed 28 DAT. Differences were uncovered in the whole plant sensitivity to increasing application rates of quizalofop. […] Resistant to susceptible ratios for this experiment ranged from 1.6 to 7.5 based on survival/death of the plants. Cross-resistance. A cross-resistance study was conducted within the ACCase herbicide mode of action using herbicides normally lethal to wheat. Clethodim, sethoxydim, and fluazifop were used at rates of 65, 264, and 361 g ai ha^−1, plus a treatment of clethodim and 10.5 g ai ha^−1 quizalofop. Seven DAT the tops of plants were cut off above the newest above-ground growing point. Binomial evaluation of plant survival was performed 28 DAT. Tolerance of quizalofop mutants to clethodim and sethoxydim was low (Table 1). The presence of any cross tolerance presents evidence that stacking resistant ACCase copies into a single plant could lead to resistance to additional herbicides. At this stage only a third of the total ACCase in the plant would have a mutation and contain tolerance to ACCase inhibitors if the mutation is target-site-based. DNA sequencing. DNA was collected from 26 quizalofop-tolerant phenotypes. Genome-specific primers were developed to amplify sequences from the A, B, and D ancestral wheat genomes. Sequenced results were compared to previously cloned non-mutant wheat sequences to determine any nucleotide substitutions present. […] This mutation on the A genome was found in eight accessions, on the B genome in nine accessions, and on the D genome in nine accessions. No accession had more than one of these SNPs. The mutation was a C to T substitution resulting in an alanine to valine change (FIG. 7). Each accession with higher survival than the background contained one of these SNPs. Based on the chromatograph patterns, the majority these SNPs are also believed to be homozygous in the plant. ACCase enzyme characterization. An in-vitro enzyme assay was conducted to observe ACCase in conjunction with quizalofop directly to determine if the presence of ACCase mutations decreases the ability of herbicides to inhibit ACCase activity. Four quizalofop concentrations of 0.1, 1, 10, and 100 μM were included in the assay along with a non-treated treatment. The experiment included four accessions which included a representative from the three mutations detected and non-mutagenized wheat. […] Calculated at the 125 level, the resistant to susceptible value for the A genome was 4.57, the B genome was 3.57 and the D genome was 10.86.

[3] = system: ACCase, B genome mutation (alanine to valine at position 2004); assay: In-vitro ACCase enzyme assay, B genome SNP accession; format: biochemical, wheat
Method: (§2) Dose response. A dose response study was completed with 11, 23, 46, 92, and 184 g quizalofop ha^−1. Seven DAT the tops of plants were cut off above the newest above-ground growing point. Binomial evaluation of plant survival was performed 28 DAT. Differences were uncovered in the whole plant sensitivity to increasing application rates of quizalofop. […] Resistant to susceptible ratios for this experiment ranged from 1.6 to 7.5 based on survival/death of the plants. Cross-resistance. A cross-resistance study was conducted within the ACCase herbicide mode of action using herbicides normally lethal to wheat. Clethodim, sethoxydim, and fluazifop were used at rates of 65, 264, and 361 g ai ha^−1, plus a treatment of clethodim and 10.5 g ai ha^−1 quizalofop. Seven DAT the tops of plants were cut off above the newest above-ground growing point. Binomial evaluation of plant survival was performed 28 DAT. Tolerance of quizalofop mutants to clethodim and sethoxydim was low (Table 1). […] The experiment included four accessions which included a representative from the three mutations detected and non-mutagenized wheat. […] Calculated at the 125 level, the resistant to susceptible value for the A genome was 4.57, the B genome was 3.57 and the D genome was 10.86.

[4] = system: ACCase of non-mutagenized winter wheat; assay: In-vitro ACCase enzyme assay, non-mutagenized wheat; format: biochemical; details: non-mutagenized winter wheat vs mutant accessions; 0.1-100 μM
Method: as §2

[5] = system: quizalofop-tolerant winter wheat accessions vs non-mutant Hatcher wheat; assay: Visual evaluation of quizalofop injury on quizalofop-tolerant accessions; format: in vivo, Triticum aestivum L.; details: nearly all of 18 quizalofop-tolerant accessions; 21.05 g ai ha^−1; 28 DAT; compared with non-mutant Hatcher
Method: Plants were screened for visual injury, whole-plant quizalofop tolerance differences, cross-tolerance, and evaluated genotypically and enzymatically.
Visual evaluation. 18 quizalofop-tolerant accessions were treated with 21.05 g ai ha^−1 quizalofop, a discriminating dose based on previous studies. Plants were evaluated 28 days after treatment (DAT) for visible injury to quizalofop on a scale of 0 to 100%, with 0 being no injury and 100 being complete desiccation. […] The accessions had few completely dead plants, with the exception of the one accession not different than the background.

[6] = system: ACCase, A genome mutation (alanine to valine at position 2004); assay: In-vitro ACCase enzyme assay, A genome SNP accession; format: biochemical, wheat
Method: as §2

[7] = system: ACCase, D genome mutation (alanine to valine at position 2004); assay: In-vitro ACCase enzyme assay, D genome SNP accession; format: biochemical, wheat; details: for ACCase tolerance to quizalofop vs background: D genome SNP
Method: as §1, with “The mutation was a C to T substitution resulting in an alanine to valine change (FIG. 7). Each accession with higher survival than the background contained one of these SNPs. Based on the chromatograph patterns, the majority these SNPs are also believed to be homozygous in the plant. ACCase enzyme characterization. An in-vitro enzyme assay was conducted to observe ACCase in conjunction with quizalofop directly to determine if the presence of ACCase mutations decreases the ability of herbicides to inhibit ACCase activity. Four quizalofop concentrations of 0.1, 1, 10, and 100 μM were included in the assay along with a non-treated treatment.” left out

[8] = system: single-gene (AF28, AF26, AF10) and two-gene (AB17, AB157, BD4, AD91) wheat lines; assay: Field crop safety trial with and without safener
Method: During the 2014-2015 growing season, a field crop safety trial was performed to assess these lines for relative levels of resistance and performance under two application timings, applied with and without the safener cloquintocet-mexyl.
Determine relative levels of resistance between two-gene lines and single-gene lines. Determine which application timing (early or late spring) provided the highest crop safety.
One quizalofop susceptible line (Hatcher), four two-gene breeding lines (CO14A006 [AB17], CO14A041[AB157], CO14A075 [BD4], CO14A065 [AD91) and three one-gene parent lines (AF28, AF26, and AF10) were compared. A split-split plot design was used in which quizalofop p-ethyl was applied at 92.5 g ai ha^−1 with 1% MSO corresponding to the highest likely label application rate on March 31st at the tillering growth stage, and on May 2nd at the jointing growth stage. Cloquintocet safener (10 g ai/ha) was included in the split-split plot design. In the analysis, visual injury ratings and height were assessed one month before harvest, and grain yield in grams per plot was also used as a response factor. The SAS statistical package and proc mixed were used for analysis with a tukey-adjusted p-value of 0.05 as the cutoff value. The analysis was sliced by the cloquintocet factor, and comparisons of timing were made within lines.

Structure (SMILES) | survival ([2]; Accession 0 (non-mutant check)) | survival ([2]; Accession 1) | survival ([2]; Accession 2) | survival ([2]; Accession 3) | survival ([2]; Accession 4) | survival ([2]; Accession 5) | survival ([2]; Accession 6) | survival ([2]; Accession 7) | survival ([2]; Accession 8) | survival ([2]; Accession 9) | survival ([2]; Accession 10) | survival ([2]; Accession 11) | survival ([2]; Accession 12) | survival ([2]; Accession 13) | survival ([2]; Accession 14) | survival ([2]; Accession 15) | survival ([2]; Accession 16) | survival ([2]; Accession 17) | further results
O=C(O)COc1ccc(Cl)c2cccnc12 [cloquintocet acid] | – | – | – | – | – | – | – | – | – | – | – | – | – | – | – | – | – | – | potentiation of resistance to acetyl-CoA carboxylase herbicides [1]: just as effectively resistance as the multiple copy lines
CC(Oc1ccc(Oc2ccc(C(F)(F)F)cn2)cc1)C(=O)O (centres unmarked) [Fluazifop, (.+−.)-2-[4-[[5-(trifluoromethyl)-2-pyridinyl]oxy]phenoxy]propanoic acid] | 0% | 0% | 0% | 0% | 0% | 0% | 0% | 0% | 0% | 0% | 0% | 0% | 0% | 0% | 0% | 0% | 0% | 0% | –
CCCC(=NOCC)C1=C(O)CC(CC(C)SCC)CC1=O (centres unmarked) [Sethoxydin, 2-[1-(ethoxyimino)-butyl]-5-[2-(ethylthio)propyl]-3-hydroxy-2-cylohexen-1-one] | 0% | 0% | 0% | 0% | 0% | 0% | 0% | 0% | 0% | 0% | 0% | 8% | 8% | 0% | 0% | 0% | 0% | 0% | Tolerance of quizalofop mutants ([2]; summary of Table 1): low
CCSC(C)CC1CC(=O)C(/C(CC)=N/OC/C=C/Cl)=C(O)C1 (centres unmarked) [Clethodim, (E,E)-(.+−.)-2-[1-[[(3-chloro-2-propenyl)oxy]imino]propyl]-5-[2-(ethylth-io)propyl]-3-hydroxy-2-cyclohexen-1-one] | 0% | 10% | 0% | 0% | 0% | 0% | 0% | 0% | 25% | 17% | 0% | 0% | 17% | 0% | 0% | 0% | 0% | 0% | –
CC(Oc1ccc(Oc2cnc3cc(Cl)ccc3n2)cc1)C(=O)O (centres unmarked) [quizalofop, (.+−.)-2-[4-[(6-chloro-2-quinoxalinyl)-oxy]phenoxy]propanoic acid] | – | – | – | – | – | – | – | – | – | – | – | – | – | – | – | – | – | – | ACCase tolerance to quizalofop vs background ([3]; B genome SNP, 10 μM quizalofop): higher than background levels of tolerance; resistant to susceptible value, calculated at the 125 level ([3]; B genome, vs non-mutagenized wheat): 3.57; ACCase sensitivity to quizalofop [4]: greater sensitivity; visible injury to quizalofop on a scale of 0 to 100% [5]: more tolerant to quizalofop than non-mutant Hatcher wheat; ACCase tolerance to quizalofop vs background ([6]; A genome SNP, 100 μM quizalofop): higher than background tolerance; resistant to susceptible value, calculated at the 125 level ([6]; A genome, vs non-mutagenized wheat): 4.57; ACCase tolerance to quizalofop vs background ([7]; 10 μM quizalofop): higher than background levels of tolerance; ACCase tolerance to quizalofop vs background ([7]; 100 μM quizalofop): higher than background tolerance; resistant to susceptible value, calculated at the 125 level ([7]; D genome, vs non-mutagenized wheat): 10.86
CCOC(=O)[C@@H](C)Oc1ccc(Oc2cnc3cc(Cl)ccc3n2)cc1 [quizalofop p-ethyl] | – | – | – | – | – | – | – | – | – | – | – | – | – | – | – | – | – | – | crop injury (reduced height, reduced yield, or increased injury rating) ([8]; May (jointing) compared to March (tillering) treatment timing): consistently higher crop injury; crop safety ([8]; all two-gene lines, 92.5 g ai ha^−1, no safener, vs single-gene lines): much higher levels of crop safety; crop injury compared to the untreated control ([8]; single-gene line AF28, 92.5 g ai ha^−1, no safener): only showed injury with the May treatment timing; crop injury compared to the untreated control ([8]; single-gene lines, 92.5 g ai ha^−1 with 1% MSO, no safener, March and May timings): significant injury; crop injury ([8]; two-gene line AD91, 92.5 g ai ha^−1, with or without safener, March or May): no crop injury for any treatment combination; crop injury ([8]; two-gene lines AB157 and AB17, 92.5 g ai ha^−1, no safener): crop injury in the May treatment timing
